Assay [1] deals with Krotonöl-Entzündung in der Maus. The assay is described as follows: Croton oil inflammation in the mouse (ear punch weight). In kind it is in vivo, Mäusen (Charles River CD-1). To be noted: for Gewicht der Ohrstücke in mg: croton oil alone 19,7±0,6, vehicle without croton oil 7,2; for Hemmung in %: topical, mouse ear, 6 h. How it is done:
Eine Lösung aus 0,1 Teilen Krotonöl, 1 Teil destilliertem Wasser, 4 Teilen Pyridin und 4,9 Teilen Diäthyläther (Volumenteile), welche die Testverbindung enthält, wird topisch auf Ohren von 21 Tage alten männlichen Mäusen (Charles River CD-1) gegeben (25 ul). Verschiedene Gruppen von Mäusen dienten als Kontrollgruppen (Trägermaterial-Gruppe und Krotonöl-Gruppe). Nach 6 Stunden wird das Gewicht der Ohrstücke bestimmt, das in erster Linie ein Mass für die Oedem-Komponente der Entzündung ist. Verminderung des Gewichtes von Ohrstücken, welche von Mäusen erhalten wurden, welche mit der Testverbindung und dem Reizmittel behandelt worden sind, verglichen mit dem Gewicht von Ohrstücken, die von Mäusen erhalten wurden, die nur mit dem Reizmittel behandelt worden sind, zeigt entzündungshemmende Wirkung an (Endocrinology 77, 625-634, 1965; Clin. Pharm. Exp. Therap. 16, 900-904, 1974).
Die Verbindung E wird bei 3 verschiedenen Dosierungen im Krotonöl-Entzündungs-Test in der Maus auf ihre topisch entzündungshemmende Wirkung hin geprüft. Ebenfalls getestet werden Hydrocortison, ein bekanntes topisch entzündungshemmendes Corticosteroid, und eine Reihe von bekannten Verbindungen, welche systemisch entzündungshemmend wirken und nicht zur Klasse der Steroide gehören. Die Testresultate (Hemmung in Prozenten) sind in der unten stehenden Tabelle angegeben. Wie man diesen Resultaten entnehmen kann, entfaltet die Verbindung E eine vergleichbare Aktivität wie Hydrocortison, währenddem die anderen Verbindungen, welche nicht zur Klasse der Steroide gehören, in wesentlich höheren Dosierungen verabreicht werden müssen, um eine vergleichbare Hemmung zu bewirken, wie die Verbindung E und Hydrocortison.
Die entzündungshemmende Wirkung der Verbindung E alleine oder in Kombination mit 4-(3-Butoxy-4-methoxybenzyl)-2-imidazolidinon wird im Krotonöl-Test an der Maus bestimmt. Die Verbindung E wird bei verschiedenen Konzentrationen verwendet. 4-(3-Butoxy-4-methoxybenzyl)-2-imida- zolidinon wird, sofern vorhanden, in einer Konzentration von 5 Gewichtsprozenten (bezogen auf das Gewicht der applizierten Lösung) eingesetzt. Die Testresultate sind in der unten stehenden Tabelle aufgeführt.

The subject of assay [2] is Baumwollkügelchen-Granuloma. Put plainly: Cotton pellet granuloma method in the rat. In kind it is in vivo, Ratten (Charles River CD). To be noted: s.c. implant, 72 h; for durchschnittliches Nettogewicht der Kügelchen in mg trocken: ethanol vehicle 32.6; for durchschnittliches Nettogewicht der Kügelchen in mg feucht: ethanol vehicle 392.5. On the procedure: Man löst die Testverbindung in einem geeigneten Lösungsmittel und appliziert jeweils 0,1 ml dieser Lösung auf einheitliche, vorher gewogene Baumwollkügelchen, die man aus Baumwolltampons herausgeschnitten hat. Man trocknet die Baumwollkügelchen bei Raumtemperatur. 2 mit der Testverbindung imprägnierte Kügelchen werden auf dem Dorsum von 5 Wochen alten männlichen Ratten (Charles River CD) subcutan inplantiert. 72 Stunden später werden die Kügelchen entfernt. Man bestimmt das Feucht- und Trockengewicht und korrigiert um das Tara der Kügelchen. Vergleicht man nun die Gewichte der Granulomata, die man von mit der Testverbindung imprägnierten Kügelchen erhalten hat, mit den Gewichten der Granulomata, die man von nur mit Trägermaterial imprägnierten Kügelchen erhalten hat, miteinander, so zeigt eine Abnahme des Gewichtes entzündungshemmende Wirkung an (Endocrinology 60, 153-160, 1957).
Die topisch entzündungshemmenden Wirkungen der Verbindung E und Hydrocortison werden durch Verwendung des Baumwollkügelchen-Granuloma-Verfahrens an der Ratte bestimmt. Die in der unten stehenden Tabelle angegebenen Testresultate zeigen, dass die Verbindung E bei Dosierungenen von 90 und 270 µg/0,1 ml grösser ist als die Akti- vität von Hydrocortison (niedrigere Feucht- und Trockengewichte).

Assay [3] deals with Oxazolon-Entzündung in vorsensibilisierten Mäusen. The assay is described as follows: Oxazolone inflammation in presensitised mice (ear punch weight). In kind it is in vivo, Mäuse (Charles River CD-1). The note with it: topical, mouse ear, 24 h. On the procedure:
21 Tage alte männliche Mäuse (Charles River CD-1) werden mit Oxazolon sensibilisiert, indem man 400 ug Oxazolon in 20 ul Aceton topisch auf das Scrotum appliziert.. Eine Woche später werden 10 ul Aceton oder 200 µg Oxazolon topisch auf die innere Oberfläche des Ohres und die Testverbindung in 10 µl Aceton auf die äussere Oberfläche des Ohres appliziert. Verschiedene Gruppen von Mäusen dienten als Kontrollgruppen (Trägermaterial-Gruppe und Oxazolon-Gruppe). Das Gewicht der Ohrstücke wird 24 Stunden später bestimmt. Verminderung des Gewichtes der Ohrstücke, erhalten aus Mäusen, welche mit der Testverbindung und mit Oxazolon behandelt worden sind, verglichen mit dem Gewicht der Ohrstücke, erhalten aus Mäusen, welche mit Oxazolon alleine behandelt worden sind, zeigt entzündungshemmende Wirkungen (Br. J. Pharmacol. 43, 403-408, 1971).
Die topisch entzündungshemmenden Wirkungen der Verbindung E, Hydrocortison und Indomethacin werden bei verschiedenen Dosierungen im Oxazolon-Entzündungs-Test in vorsensibilisierten Mäusen bestimmt. Die Testresultate (Hemmung in %) sind in der untenstehenden Tabelle angegeben.

Assay [4] concerns Cantharidin-Entzündung in der Ratte. Put plainly: Cantharidin inflammation in the rat (ear punch weight). The format is in vivo, Ratten (Charles River CD). The note with it: 100 µg/0,1 ml topical, compound given 24 h after cantharidin, autopsy 72 h. On the procedure:
Eine Lösung aus einem Teil Aethanol, 1,5 Teilen Collodion, 2 Teilen Aceton und 3 Teilen Diäthyläther (Volumenteile), welche 400 ug Cantharidin/0,1 ml und die Testverbindung in der gewünschten Menge enthält, wird topisch auf die äussere Oberfläche von Ohren von 21 Tage alten männlichen Ratten (Charles River CD) gegeben (0,1 ml). Andere Gruppen von Ratten werden mit Trägermaterial alleine, mit Cantharidin alleine und mit Cantharidin plus Testverbindung behandelt. Wo in den Beispielen angegeben, wird die Testverbindung 24 Stunden nach Verabreichung von Cantharidin verabreicht. 72 Stunden nach Verabreichung von Cantharidin wird eine Autopsie durchgeführt. Aus dem Ohr werden an der behandelten Stelle einheitliche Stücke herausgestanzt und gewogen. Aus den Gewichtsveränderungen lassen sich die Auswirkungen auf den Entzündungsprozess ermitteln, und zwar sowohl für die Flüssigkeits- als auch für die Gewebskomponente. Eine Reduktion des Gewichtes von Hautstücken, die man aus Ratten erhalten hat, welche mit dem Reizmittel und der Testverbindung behandelt worden sind, verglichen mit dem Gewicht von Hautstücken, welche man von Ratten erhalten hat, die nur mit dem Reizmittel behandelt worden sind, zeigt eine entzündungshemmende Wirkung an (J. Invest. Dermatol. 68, 161-164, 1977).
Eine Reihe von Verbindungen der allgemeinen Formel I werden im Cantharidin-Entzündungs-Test in der Ratte auf ihre topisch entzündungshemmenden Wirkungen hin ge- testet. Jede Verbindung wird bei 5 verschiedenen Dosierungen getestet. Die in der nachfolgenden Tabelle ange- gebenen Testresultate (in %) geben an, um wieviel die durch Cantharidin bewirkte Zunahme des Gewichtes der Ohrstücke durch die jeweilige Testverbindung reduziert wird: • [formula]
Die topisch entzündungshemmende Wirkung der Verbindung E wird bei einer Dosierung von 100 µg/0,1 ml im Cantharidin- Entzündungs-Test in der Ratte bestimmt, wobei man adrenalektomierte und intakte Ratten verwendet. Wie man den Testresultaten in der untenstehenden Tabelle entnehmen kann, entfaltet die Verbindung E an der adrenalektomierten Ratte etwa die gleich grosse Wirkung wie an der intakten Ratte. Dies zeigt an, dass der primäre Wirkungsmechanismus nicht in der Stimulierung der Nebennierenrinde besteht.

[5] abbreviates: pellets impregnated with 90 µg/0.1 ml.
Where [6] appears, read: pellets impregnated with 270 µg/0.1 ml.

As for `CCCCOc1cc(CC2CNC(=O)N2)ccc1OC` (stereo not drawn) [4-(3-Butoxy-4-methoxybenzyl)-2-imidazolidinon], the “Gewicht der Ohrstücke in mg” value in assay [1] (5% imidazolidinone, Verbindung E 0 µg/0,1 ml) is on record as 17,6±1,0 mg. Besides, the “entzündungshemmende Wirkung” value in assay [1] (alone, at concentrations of 5%, test not given) is “nur wenig oder gar keine entzündungshemmende Wirkung”. Moreover, in assay [1] (imidazolidinone at 5% combined with Verbindung E), the “Einfluss auf die entzündungshemmende Wirkung der Verbindung E” value is “potenziert”.

Regarding `CC(=O)Oc1ccccc1C(=O)O` [Acetylsalicyl säure], the Hemmung in % in assay [1] (dose 1250 µg/25 µl) stood at 28%; in assay [1] (dose 2500 µg/25 µl), 36%; in assay [1] (dose 5000 µg/25 µl) it was 78%; in assay [1] (dose 10000 µg/25 µl) it was 88%.

`CC(C(=O)O)c1cccc(Oc2ccccc2)c1` (stereo not drawn) [Fenoprofen]: the Hemmung in % is reported as 50% in assay [1] (dose 1250 µg/25 µl) and 71% in assay [1] (dose 2500 µg/25 µl).

On to `C[C@]12CCC(=O)C=C1CC[C@@H]1[C@@H]2[C@@H](O)C[C@@]2(C)[C@H]1CC[C@]2(O)C(=O)CO` [Hydrocortison], for which the Hemmung in % in assay [1] (dose 50 µg/25 µl) is recorded as 53%; in assay [1] (dose 125 µg/25 µl), 77%; in assay [1] (dose 250 µg/25 µl), 98%; in assay [3] (dose 50 µg/10 µl), 24%; in assay [3] (dose 200 µg/10 µl), 49%. Also, the “durchschnittliches Nettogewicht der Kügelchen in mg trocken” value in assay [2] (setting [5]) was found to be 37.7 mg; in assay [2] (setting [6]) it was 20.3 mg. Also, the “durchschnittliches Nettogewicht der Kügelchen in mg feucht” value in assay [2] (setting [5]) was 406.5 mg; in assay [2] (setting [6]), 286.6 mg.

As to `COc1ccc2c(c1)c(CC(=O)O)c(C)n2C(=O)c1ccc(Cl)cc1` [Indomethacin], the Hemmung in % is given as 32% in assay [3] (dose 500 µg/10 µl) and 59% in assay [3] (dose 1000 µg/10 µl).

For `COc1ccc2cc([C@H](C)C(=O)O)ccc2c1` [Naproxen], the Hemmung in % in assay [1] (dose 1250 µg/25 µl) came to 60%; in assay [1] (dose 2500 µg/25 µl), 87%.

On to `CN1CCN(C2=Cc3ccccc3Sc3ccc(Cl)cc32)CC1` [Verbindung E, 8-Chlor-10-(4-methylpiperazino)dibenzo-[b,f]thiepin], for which the “Gewicht der Ohrstücke in mg” value in assay [1] (Verbindung E alone, 100 µg/0,1 ml) was 15,9±0,8 mg; in assay [1] (Verbindung E alone, 400 µg/0,1 ml), 11,8±0,6 mg. Also, the Hemmung in % in assay [1] (dose 100 µg/25 µl) is given as 48%; in assay [1] (dose 200 µg/25 µl), 67%; in assay [1] (dose 500 µg/25 µl) it was 91%; in assay [4] (adrenalectomised rats) it was 49%; in assay [4] (intact rats), 55%; in assay [3] (dose 100 µg/10 µl), 51%. Also, in assay [3] (dose 500 µg/10 µl), the Hemmung in % is recorded as 75%. For the same compound, the “Gewicht der Ohrstücke” value in assay [4] (adrenalectomised rats, vehicle 11.4±0.2, cantharidin alone 25.5±1.0) came to 18.6±0.6; in assay [4] (intact rats, vehicle 12.0±0.4, cantharidin alone 25.2±1.5), 18.0±1.1. Also, the “durchschnittliches Nettogewicht der Kügelchen in mg trocken” value in assay [2] (setting [5]) is 20.1 mg; in assay [2] (setting [6]), 16.9 mg. Further, the “durchschnittliches Nettogewicht der Kügelchen in mg feucht” value in assay [2] (setting [5]) is listed as 285.2 mg; in assay [2] (setting [6]), 234.9 mg.

Consider Phenylbutazon, for which the Hemmung in % is given as 33% in assay [1] (dose 1250 µg/25 µl) and 69% in assay [1] (dose 2500 µg/25 µl).

The values above are taken from patent EP0039059A2, “Anti-inflammatory drugs and their application” (F. HOFFMANN-LA ROCHE & CO. Aktiengesellschaft, priority 1980, dated 1981).
